Data from patent US20030013660A1, “Dioxolane analogs for improved inter-cellular delivery” (Shire BioChem Inc., priority 2000, published 2003).

Legend:
H-460 [1] = test: 3H-TdR incorporation at 72 hr (24 hr drug exposure, wash, 48 hr); format: cell-based, Human; conditions: Homo sapiens, NCI-H460, read-out: IC50 in μM (3H-TdR incorporation at 72 hr) H-460 24 h, H-460 Human Lung Carcinoma, 72 hr assay
Experimental: (§1) Exposition of 24 hr to drug, wash, incubated for another 48 hr (total of 72 hr assay)
(§2) (3H-Thymidine Incorporation Assay)

SF-268 [2] = test: as above; format: cell-based, Human; conditions: Homo sapiens, SF-268, read-out: IC50 in μM (3H-TdR incorporation at 72 hr) SF-268 24 h, SF-268 Human Central Nervous System Tumor; 24 h drug exposure, 72 hr assay
Experimental: as §1, §2

MCF-7 [3] = test: as above; format: cell-based, Human; conditions: Homo sapiens, MCF7, read-out: IC50 in μM (3H-TdR incorporation at 72 hr) MCF-7 24 h, MCF-7 Human Breast Carcinoma, 72 hr assay
Experimental: as §1, §2

CEM/dCK- [4] = test: as above; format: cell-based; conditions: Homo sapiens, CCRF-CEM, read-out: IC50 in μM (3H-TdR incorporation at 72 hr) CEM/dCK- 24 h, CCRF-CEM deoxycytidine kinase-deficient; 24 h drug exposure, 72 hr assay
Experimental: as §1, §2

H-460 [5] = test: 3H-TdR (3H-thymidine) incorporation assay at 72 hr; format: cell-based, Human; conditions: Homo sapiens, 3H-TdR incorporation at 72 hr
SF-268 [6] = test: 3H-TdR (3H-thymidine) incorporation assay at 72 hr; format: cell-based, Human; conditions: Homo sapiens, 3H-TdR incorporation at 72 hr
MCF-7 [7] = test: 3H-TdR (3H-thymidine) incorporation assay at 72 hr; format: cell-based, Human; conditions: Homo sapiens, 3H-TdR incorporation at 72 hr
CEM/dCK- [8] = test: 3H-TdR (3H-thymidine) incorporation assay at 72 hr; format: cell-based; conditions: for IC50: deoxycytidine kinase-deficient CCRF-CEM; for Factor* (Resistance Factor = Ratio of dCK- on Wild-type CCRF-CEM): ratio of IC50 CEM/dCK- to CCRF-CEM, 24 h
Experimental: (§3) Table of IC50 Values (μM) for Controls
as §1, §2

CCRF-CEM = test: 3H-TdR (3H-thymidine) incorporation assay at 72 hr; format: cell-based; conditions: Homo sapiens, CCRF-CEM, read-out: IC50 CCRF-CEM 24 h, 24 h drug exposure, wash, another 48 hr; 3H-TdR incorporation at 72 hr
Experimental: as §3, §1, §2

[9] = NCI-H460, read-out: IC50 H-460 (72 h), 72 h exposure
[10] = SF-268, read-out: IC50 SF-268 (72 h), 72 h exposure
[11] = MCF7, read-out: IC50 MCF-7 (72 h), 72 h exposure
[12] = Homo sapiens, CCRF-CEM, read-out: IC50 CEM/dCK- 24 h, 24 h drug exposure, wash, another 48 hr
[13] = NCI-H460, read-out: IC50 H-460 24 h, 24 h drug exposure, wash, another 48 hr
[14] = SF-268, read-out: IC50 SF-268 24 h, 24 h drug exposure, wash, another 48 hr
[15] = MCF7, read-out: IC50 MCF-7 24 h, 24 h drug exposure, wash, another 48 hr

| IC50 (H-460 [1]) [µM] | IC50 (SF-268 [2]) [µM] | IC50 (MCF-7 [3]) [µM] | IC50 (CEM/dCK- [4]) [µM] | IC50 (H-460 [5]; [9]) [nM] | IC50 (SF-268 [6]; [10]) [nM] | IC50 (MCF-7 [7]; [11]) [nM] | IC50 (CEM/dCK- [8]; [12]) [nM] | IC50 (CCRF-CEM) [nM] | IC50 (CEM/dCK- [8]; read-out: IC50 CEM/dCK- 24 h, 24 h drug exposure, wash, another 48 hr) [nM] | Structure (SMILES) | Factor* (Resistance Factor = Ratio of dCK- on Wild-type CCRF-CEM) (CEM/dCK- [8]) | IC50 (H-460 [5]; [13]) [nM] | IC50 (SF-268 [6]; [14]) [nM] | IC50 (MCF-7 [7]; [15]) [nM] |
| --- | --- | --- | --- | --- | --- | --- | --- | --- | --- | --- | --- | --- | --- | --- |
| 3.9 | 96 | 33 | > 100 | – | – | – | – | – | – | Nc1ccn([C@@H]2CO[C@H](COC(=O)NCCCc3ccccc3)O2)c(=O)n1 [Compound 215, (3-PHENYL-PROPYL)- CARBAMIC ACID 4-(4- AMINO-2-OXO-2H- PYRIMIDIN-1-YL)- [1,3]DIOXOLAN-2-YL METHYL ESTER] | – | – | – | – |
| 0.0091 | 0.081 | 0.052 | 60 | – | – | – | – | – | – | CCCCC(CC)(CC)C(=O)OC[C@H]1OC[C@@H](n2ccc(N)nc2=O)O1 [Compound 218, 2,2-DIETHYL-HEXANOIC ACID 4-(4-AMINO-2-OXO- 2H-PYRIMIDIN-1-YL)- [1,3]DIOXOLAN-2-YL METHYL ESTER] | – | – | – | – |
| – | – | – | – | 1.2 | 13 | 4.4 | 51600 | 5.6 | – | CC(C)C(=O)OC[C@H]1OC[C@@H](n2ccc(N)nc2=O)O1 [Compound 275, ISOBUTYRIC ACID 4-(4- AMINO-2-OXO-2H- PYRIMIDIN-1-YL)- [1,3]DIOXOLAN-2-YL METHYL ESTER] | 9,214 | – | – | – |
| – | – | – | – | 2.4 | 13 | 23 | 71200 | 28 | 91000 | CC(C)CC(=O)OC[C@H]1OC[C@@H](n2ccc(N)nc2=O)O1 [Compound 278, 3-METHYL-BUTYRIC ACID 4-(4-AMINO-2-OXO-2H- PYRIMIDIN-1-YL)- [1,3]DIOXOLAN-2-YL METHYL ESTER] | – | 79 | 93 | 38 |

Second part, the compound before the results:

| Structure (SMILES) | IC50 (H-460 [1]) [µM] | IC50 (SF-268 [2]) [µM] | IC50 (MCF-7 [3]) [µM] | IC50 (CEM/dCK- [4]) [µM] | IC50 (H-460 [5]; [9]) [nM] | IC50 (SF-268 [6]; [10]) [nM] | IC50 (MCF-7 [7]; [11]) [nM] | IC50 (CEM/dCK- [8]; [12]) [nM] | IC50 (CCRF-CEM) [nM] | IC50 (CEM/dCK- [8]; read-out: IC50 CEM/dCK- 24 h, 24 h drug exposure, wash, another 48 hr) [nM] | Factor* (Resistance Factor = Ratio of dCK- on Wild-type CCRF-CEM) (CEM/dCK- [8]) | IC50 (H-460 [5]; [13]) [nM] | IC50 (SF-268 [6]; [14]) [nM] | IC50 (MCF-7 [7]; [15]) [nM] |
| --- | --- | --- | --- | --- | --- | --- | --- | --- | --- | --- | --- | --- | --- | --- |
| Nc1ccn([C@@H]2CO[C@H](COC(=O)c3ccccc3-c3ccccc3)O2)c(=O)n1 [Compound 209, BIPHENYL-2-CARBOXYLIC ACID 4-(4-AMINO-2-OXO- 2#H!-PYRIMIDIN-1-YL)- [1,3]DIOXOLAN-2-YL METHYL ESTER] | 0.31 | 0.59 | 1.3 | > 100 | – | – | – | – | – | – | – | – | – | – |
| CC(C)(C)C(=O)Oc1ccc(COC(=O)Nc2ccn([C@@H]3CO[C@H](COC(=O)OCc4ccc(OC(=O)C(C)(C)C)cc4)O3)c(=O)n2)cc1 [Compound 212, 2,2-Dimethylpropionic Acid 4-(1-{2-[4-(2,2-dimethylpropionyloxy)benzyloxy Carbonyloxymethyl]-[1,3]dioxolan-4-yl}-2-oxo-1,2-dihydropyrimidin-4-ylcarbamoyloxymethyl)-phenyl Ester] | 0.00011 | 0.018 | 0.00059 | 3.5 | – | – | – | – | – | – | – | – | – | – |
| CC(C)(C)C(=O)Oc1ccc(COC(=O)Nc2ccn([C@@H]3CO[C@H](CO)O3)c(=O)n2)cc1 [Compound 213, 2,2-DIMETHYL-PROPIONIC ACID 4-[1-(2- HYDROXYMETHYL- [1,3]DIOXOLAN-4-YL)-2- OXO-1,2-DIHYDRO- PYRIMIDIN-4- YLCARBAMOYLOXYMETHYL]- PHENYL ESTER] | ≤ 0.0001 | 0.012 | 0.00027 | 1.1 | – | – | – | – | – | – | – | – | – | – |
| CC(C)(C)OC(=O)N(CCCCCCNC(=O)OC[C@H]1OC[C@@H](n2ccc(N)nc2=O)O1)Cc1ccccc1 [Compound 214, {6-[4-(4-AMINO-2-OXO- 2H-PYRIMIDIN-1-YL)- [1,3]DIOXOLAN-2- YLMETHOXYCARBONYLAMINO]-HEXYL}-BENZYL-CARBAMIC ACID TERT-BUTYL ESTER] | 9.4 | 89 | 9.4 | > 100 | – | – | – | – | – | – | – | – | – | – |
| CC(C)[C@H](N)C(=O)Nc1ccn([C@@H]2CO[C@H](CO)O2)c(=O)n1.O=C(O)C(F)(F)F [Compound 280, 2-Amino-N-[1-(2-hydoxymethyl-[1,3]dioxolan-4-yl)-2-oxo-1,2-dihydro-pyrimidin-4-yl]-3-methyl-butyramide; trifluoroacetic acid salt] | – | – | – | – | – | – | – | > 100000 | 1900 | – | >53 | 1900 | 18000 | 3100 |
